From PMC7115508 (European Journal of Medicinal Chemistry, 2011)
pEC50: −log10 of the molar value.

Assays:
[1] = tested on: normal human fibroblast cell HS27
[2] = tested on: HCV RNA replication in HCV replicon cell (Huh-7 carrying the subgenomic HCV genotype 1 replicon); conditions: read-out: Antiviral Activity HCV (EC50); cited from earlier work

| SMILES | Cytotoxicity: concentration required to reduce proliferation of normal human fibroblast cell HS27 by 50% [1] | pEC50 [2] |
| --- | --- | --- |
| O=c1cc(OCc2ccccc2)oc2ccc(OCc3cccc(Cl)c3)c(O)c12 [5a, 2-benzyloxy-6-(3-chloro-benzyloxy)-5-hydroxy-chromen-4-one] | >50 µM |  |
| O=c1cc(OCc2cccc(Cl)c2)oc2ccc(OCc3cccc(Cl)c3)c(O)c12 [5b, 2,6-bis-(3-chloro-benzyloxy)-5-hydroxy-chromen-4-one] | >50 µM |  |
| O=c1cc(OCc2ccc(Cl)cc2)oc2ccc(OCc3cccc(Cl)c3)c(O)c12 [5c, 6-(3-chloro-benzyloxy)-2-(4-chloro-benzyloxy)-5-hydroxy-chromen-4-one] | >50 µM |  |
| O=c1cc(OCc2cc(Cl)cc(Cl)c2)oc2ccc(OCc3cccc(Cl)c3)c(O)c12 [5d, 6-(3-chloro-benzyloxy)-2-(3,5-dichloro-benzyloxy)-5-hydroxy-chromen-4-one] | >50 µM |  |
| O=c1cc(OCc2cccc(I)c2)oc2ccc(OCc3cccc(Cl)c3)c(O)c12 [5e, 6-(3-chloro-benzyloxy)-5-hydroxy-2-(3-iodo-benzyloxy)-chromen-4-one] | >50 µM |  |
| O=c1cc(OCc2ccc(I)cc2)oc2ccc(OCc3cccc(Cl)c3)c(O)c12 [5f, 6-(3-chloro-benzyloxy)-5-hydroxy-2-(4-iodo-benzyloxy)-chromen-4-one] | >50 µM |  |
| N#Cc1cccc(COc2cc(=O)c3c(O)c(OCc4cccc(Cl)c4)ccc3o2)c1 [5g, 3-[6-(3-chloro-benzyloxy)-5-hydroxy-4-oxo-4H-chromen-2-yloxymethyl]-benzonitrile] | >50 µM |  |
| O=C(O)/C(O)=C/C(=O)c1cccc(NCc2ccc(Cl)cc2)c1 [compound 1, reference compound] | >50 µM |  |
| O=c1c(OCc2cccc([N+](=O)[O-])c2)c(-c2ccccc2)oc2cc(O)cc(O)c12 [compound 3, reference compound] | >50 µM | 5.30 |
| N#Cc1cccc(COc2cc(O)c3c(=O)c(O)c(-c4ccccc4)oc3c2)c1 [compound 4, reference compound] | >50 µM | 5.52 |
